Test results: ChEMBL document CHEMBL1146751, “Threshold interaction energy of NRTI's (2'-deoxy 3'-substituted nucleosidic analogs of reverse transcriptase inhibitors) to undergo competitive inhibition” (Bioorg Med Chem Lett, 2004)
Structures can show the parent of a compound that is named as a salt.

Each molecule was assayed on MT4 (assay: Potency against […] nucleoside reverse transcriptor was determined in MT-4 cells). Details: Homo sapiens.
Format: functional, cell-based

SMILES | IC50 [nM]
O=C1Nc2ccc(Cl)cc2[C@@](C#CC2CC2)(C(F)(F)F)O1 [EFAVIRENZ] | 40
S=C(NCCc1ccccn1)Nc1ccc(Br)cn1 [TROVIRDINE HYDROCHLORIDE] | 800
Cc1cn([C@H]2C[C@H](N=[N+]=[N-])[C@@H](CO)O2)c(=O)[nH]c1=O [ZIDOVUDINE] | 40
Cc1ccnc2c1NC(=O)c1cccnc1N2C1CC1 [NEVIRAPINE] | 600
Cc1ncc([N+](=O)[O-])n1CCOC(c1ccccc1)c1ccccc1 | 50
CCOC(=O)c1cccn1S(=O)(=O)c1cc(Cl)ccc1N | 400
Nc1ccn([C@H]2CC[C@@H](CO)O2)c(=O)n1 [ZALCITABINE] | 1600
Nc1[nH]cnc2ncnc1-2 [ADENINE] | 12000
